Data taken from ChEMBL document CHEMBL1201862, “PubChem BioAssay data set” (2004).
Activity calls are given as the source filed them.

Key:
[1] = target: T1, Heat shock factor protein 1 (Mus musculus, UniProt P38532); test: decrease of HSF1-responsive luciferase luminescence – cell-based, NIH3T3, dose retest, confirmation (AID 2382); type: functional;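 further: NIH3T3 fibroblasts with HSF1-driven luciferase reporter stressed by proteasome inhibitor MG132; luminescence from HSF1-driven luciferase expression after 8 hours of MG132 stress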
T1 sequence (P38532 whole entry): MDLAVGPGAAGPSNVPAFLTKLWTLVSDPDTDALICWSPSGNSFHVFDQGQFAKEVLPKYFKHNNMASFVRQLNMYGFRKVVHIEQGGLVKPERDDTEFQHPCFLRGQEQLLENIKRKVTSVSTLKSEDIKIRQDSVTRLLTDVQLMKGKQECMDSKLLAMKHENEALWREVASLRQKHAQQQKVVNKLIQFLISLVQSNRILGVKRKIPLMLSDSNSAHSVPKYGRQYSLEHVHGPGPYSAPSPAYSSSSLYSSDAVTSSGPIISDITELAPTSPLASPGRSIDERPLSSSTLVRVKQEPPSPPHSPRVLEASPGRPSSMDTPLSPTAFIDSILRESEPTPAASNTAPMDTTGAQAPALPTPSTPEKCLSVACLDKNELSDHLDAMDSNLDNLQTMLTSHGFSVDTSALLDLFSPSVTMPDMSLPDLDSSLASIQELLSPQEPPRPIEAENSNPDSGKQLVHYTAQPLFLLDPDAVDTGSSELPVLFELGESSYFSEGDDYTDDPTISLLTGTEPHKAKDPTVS

HEK293 = test: EBV LMP1 TES2 canonical NF-kB signalling blockers – cell-based, HEK293, luciferase, cherry-pick, dose response (AID 588343); type: functional; conditions: Homo sapiens
[2] = target: T2, Corticotropin-releasing factor receptor 2/Corticotropin-releasing factor-binding protein (Homo sapiens, UniProt P24387+Q13324); test: activators of CRF receptor 2 with binding protein – uHTS hits, confirmation (AID 602473); type: functional; conditions: read-out: EC50_Mean
T2 sequence (Q13324 whole entry): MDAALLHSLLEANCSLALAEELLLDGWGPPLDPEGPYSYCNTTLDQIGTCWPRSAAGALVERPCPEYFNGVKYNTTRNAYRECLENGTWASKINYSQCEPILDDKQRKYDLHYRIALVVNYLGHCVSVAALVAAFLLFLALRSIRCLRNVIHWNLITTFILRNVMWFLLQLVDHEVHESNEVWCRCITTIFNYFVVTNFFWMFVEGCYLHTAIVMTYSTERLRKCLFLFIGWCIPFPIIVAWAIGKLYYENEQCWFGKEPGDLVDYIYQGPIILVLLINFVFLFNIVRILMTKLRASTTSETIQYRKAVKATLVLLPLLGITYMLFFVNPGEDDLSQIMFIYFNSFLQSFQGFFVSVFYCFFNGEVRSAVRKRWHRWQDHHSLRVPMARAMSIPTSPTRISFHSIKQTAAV
T2 sequence (P24387 whole entry): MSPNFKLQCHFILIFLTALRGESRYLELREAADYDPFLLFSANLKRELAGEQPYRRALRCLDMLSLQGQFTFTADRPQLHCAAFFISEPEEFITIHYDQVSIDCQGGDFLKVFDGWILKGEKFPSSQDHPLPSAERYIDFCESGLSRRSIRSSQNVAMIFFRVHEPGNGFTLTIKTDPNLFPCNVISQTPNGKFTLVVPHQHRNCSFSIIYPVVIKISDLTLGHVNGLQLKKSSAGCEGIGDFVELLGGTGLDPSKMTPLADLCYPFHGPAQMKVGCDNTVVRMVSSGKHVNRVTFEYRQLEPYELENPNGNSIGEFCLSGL

[3] = bead-based luminescence quenchers, dual-tagged ARNT – biochemical, AlphaScreen, cherry-pick, artefact control for ARNT-TACC3 interaction inhibitor project, dose response (AID 651705); type: functional;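 further: AlphaScreen bead proximity signal that flags compounds interfering with the detection technology; potency reflects signal decrease which marks the compound as an assay artifact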
[4] = target: T3, Eukaryotic translation initiation factor 2-alpha kinase 3 (Homo sapiens, UniProt Q9NZJ5); test: Dose response cell-based high-throughput screening assay to measure PERK inhibition. [Related pubchem assays: 1416 ]; type: functional
T3 sequence (Q9NZJ5 whole entry): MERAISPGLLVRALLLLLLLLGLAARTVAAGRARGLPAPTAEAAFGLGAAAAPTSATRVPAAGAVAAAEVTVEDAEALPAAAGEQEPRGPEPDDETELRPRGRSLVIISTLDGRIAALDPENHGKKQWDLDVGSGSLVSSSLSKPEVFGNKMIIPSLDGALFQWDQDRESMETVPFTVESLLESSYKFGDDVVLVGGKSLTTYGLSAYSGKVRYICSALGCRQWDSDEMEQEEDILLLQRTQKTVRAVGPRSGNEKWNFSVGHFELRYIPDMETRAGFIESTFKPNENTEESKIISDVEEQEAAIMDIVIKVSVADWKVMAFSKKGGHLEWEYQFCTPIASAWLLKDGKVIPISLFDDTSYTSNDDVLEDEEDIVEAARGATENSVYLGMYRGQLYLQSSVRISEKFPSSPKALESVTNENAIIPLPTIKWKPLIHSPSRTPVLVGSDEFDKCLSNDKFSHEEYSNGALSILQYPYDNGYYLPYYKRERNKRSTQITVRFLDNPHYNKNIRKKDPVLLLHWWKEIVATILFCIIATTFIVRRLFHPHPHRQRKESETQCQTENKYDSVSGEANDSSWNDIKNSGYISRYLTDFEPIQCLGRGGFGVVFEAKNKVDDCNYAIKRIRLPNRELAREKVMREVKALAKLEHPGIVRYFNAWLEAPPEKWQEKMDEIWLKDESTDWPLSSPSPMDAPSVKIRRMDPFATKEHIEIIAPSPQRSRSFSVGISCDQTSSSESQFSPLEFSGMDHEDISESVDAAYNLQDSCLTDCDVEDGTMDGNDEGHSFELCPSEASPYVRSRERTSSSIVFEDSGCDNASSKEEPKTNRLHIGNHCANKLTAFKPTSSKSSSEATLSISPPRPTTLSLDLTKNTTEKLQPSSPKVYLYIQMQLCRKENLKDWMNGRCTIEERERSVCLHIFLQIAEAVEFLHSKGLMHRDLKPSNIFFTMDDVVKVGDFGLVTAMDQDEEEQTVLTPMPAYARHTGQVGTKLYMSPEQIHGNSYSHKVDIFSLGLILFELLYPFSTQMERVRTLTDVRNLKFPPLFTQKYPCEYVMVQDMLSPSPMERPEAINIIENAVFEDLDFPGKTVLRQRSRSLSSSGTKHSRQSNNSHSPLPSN

[5] = target: T3, Eukaryotic translation initiation factor 2-alpha kinase 3; test: Counterscreen assay for PERK inhibitors: Dose response cell-based high throughput screening assay to measure inhibition of PERK at 6 hours. [Related pubchem assays: 1522, 1416 ]; type: functional
[6] = target: T4, Replicative DNA helicase DnaB (Mycobacterium tuberculosis, UniProt P9WMR3); test: DnaB intein splicing inhibitors, dose response, biochemical, cell-free fluorescence (AID 449749); type: functional
T4 sequence (P9WMR3 whole entry): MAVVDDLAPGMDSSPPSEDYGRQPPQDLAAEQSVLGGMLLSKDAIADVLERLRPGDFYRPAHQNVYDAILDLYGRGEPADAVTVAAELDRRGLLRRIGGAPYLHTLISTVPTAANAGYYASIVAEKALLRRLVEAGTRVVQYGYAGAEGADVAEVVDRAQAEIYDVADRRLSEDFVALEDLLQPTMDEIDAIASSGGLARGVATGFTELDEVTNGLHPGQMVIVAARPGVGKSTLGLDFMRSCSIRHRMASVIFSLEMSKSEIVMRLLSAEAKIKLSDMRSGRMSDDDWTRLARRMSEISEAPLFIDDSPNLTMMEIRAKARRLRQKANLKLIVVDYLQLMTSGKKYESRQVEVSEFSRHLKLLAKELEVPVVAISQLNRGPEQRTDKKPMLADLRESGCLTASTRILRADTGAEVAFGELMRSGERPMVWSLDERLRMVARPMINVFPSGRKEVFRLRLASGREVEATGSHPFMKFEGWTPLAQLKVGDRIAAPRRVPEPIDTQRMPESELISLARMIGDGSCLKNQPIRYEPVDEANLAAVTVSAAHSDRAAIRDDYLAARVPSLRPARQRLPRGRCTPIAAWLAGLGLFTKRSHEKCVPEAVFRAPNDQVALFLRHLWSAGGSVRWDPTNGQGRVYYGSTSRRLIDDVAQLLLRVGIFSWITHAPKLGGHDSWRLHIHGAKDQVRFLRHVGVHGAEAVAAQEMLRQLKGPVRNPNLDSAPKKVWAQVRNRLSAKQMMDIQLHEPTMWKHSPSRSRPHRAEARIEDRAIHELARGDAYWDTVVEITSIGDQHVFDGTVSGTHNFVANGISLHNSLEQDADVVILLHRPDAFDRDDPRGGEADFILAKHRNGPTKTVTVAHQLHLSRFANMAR

Protein RecA = target: T5, Protein RecA (Mycobacterium tuberculosis, UniProt P9WHJ3); test: Fluorescence Cell-Free Homogeneous Dose Retest to Identify Inhibitors of RecA-Intein Splicing Activity. [Related pubchem assays (depositor defined):AID2097, AID2223, AID489010, AID492950]; type: functional
T5 sequence (P9WHJ3 whole entry): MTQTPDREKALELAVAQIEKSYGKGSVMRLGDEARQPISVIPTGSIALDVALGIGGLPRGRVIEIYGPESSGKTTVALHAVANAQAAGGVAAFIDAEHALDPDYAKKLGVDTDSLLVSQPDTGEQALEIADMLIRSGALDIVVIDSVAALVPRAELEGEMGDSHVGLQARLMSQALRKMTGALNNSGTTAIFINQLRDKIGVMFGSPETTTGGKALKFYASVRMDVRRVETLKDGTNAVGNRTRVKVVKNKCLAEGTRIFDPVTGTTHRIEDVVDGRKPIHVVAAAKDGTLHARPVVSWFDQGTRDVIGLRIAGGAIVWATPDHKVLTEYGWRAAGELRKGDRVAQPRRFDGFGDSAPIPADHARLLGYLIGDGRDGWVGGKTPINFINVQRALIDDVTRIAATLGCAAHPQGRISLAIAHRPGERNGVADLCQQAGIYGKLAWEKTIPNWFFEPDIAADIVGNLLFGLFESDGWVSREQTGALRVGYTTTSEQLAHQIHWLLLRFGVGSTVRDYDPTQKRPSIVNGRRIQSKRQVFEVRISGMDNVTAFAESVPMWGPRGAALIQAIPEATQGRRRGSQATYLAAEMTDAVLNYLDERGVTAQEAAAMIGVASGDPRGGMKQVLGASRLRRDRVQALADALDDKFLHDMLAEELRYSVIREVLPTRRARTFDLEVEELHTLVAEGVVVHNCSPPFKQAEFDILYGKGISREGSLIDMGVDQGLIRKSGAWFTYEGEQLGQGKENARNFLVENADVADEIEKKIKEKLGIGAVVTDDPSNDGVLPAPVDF

Nonstructural protein 1 = Nonstructural protein 1 (Influenza A virus, UniProt Q194T2); type: functional, Influenza A virus (A/California/07/2009(H1N1))
Sequence of Nonstructural protein 1 (Q194T2 whole entry): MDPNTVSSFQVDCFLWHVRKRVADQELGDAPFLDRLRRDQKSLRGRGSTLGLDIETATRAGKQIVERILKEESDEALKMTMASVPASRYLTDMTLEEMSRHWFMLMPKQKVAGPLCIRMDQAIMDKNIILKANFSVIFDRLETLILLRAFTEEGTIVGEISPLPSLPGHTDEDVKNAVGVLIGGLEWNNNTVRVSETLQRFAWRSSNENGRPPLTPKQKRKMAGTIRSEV

P388/ADR = test: cells; type: functional; conditions: Mus musculus
SN12K1 = test: cells; type: functional; conditions: Homo sapiens
P388 = test: cells; type: functional; conditions: Mus musculus

| SMILES | AC50 (HEK293) | GI50 (P388/ADR) | GI50 (SN12K1) | GI50 (P388) | also measured |
| --- | --- | --- | --- | --- | --- |
| CCN1C(=O)C(=CNc2ccc(N3CCOCC3)c(Br)c2)C(=O)N(CC)C1=S | > 350 µM (inactive) |  |  |  | EC50 [1]: > 195 µM (not active); EC50 [2]: > 53 µM (inactive) |
| Cc1ccccc1-n1nc(C)c2cc(C(=O)NC3CC3)sc21 | 196 µM (active) |  |  |  |  |
| N#CC1=C(N)Oc2c(ccc3cccnc23)C1c1ccncc1 (stereo not given) |  |  |  |  | AC50 [3]: 99.4 µM (active) |
| CN1N=C(C(C)(C)C)CC1=O |  |  |  |  | EC50 [4]: > 55.7 µM (not active); EC50 [5]: > 55.7 µM (not active); AC50 [6]: 9.6 µM (active); EC50 (Protein RecA): 2.5 µM (active) |
| Cc1cc(O)nc(NN=Cc2cc(Br)ccc2O)n1 | 5.26 µM (active) |  |  |  | IC50 (Nonstructural protein 1): 12.2 µM (active) |
| Cc1ccc(C(=O)Nc2cccc(C(F)(F)F)c2)cc1Nc1[nH]cnc2ncnc1-2 | 7.93 µM (active) |  |  |  |  |
| C[S+]([O-])c1cc(=O)c2ccccc2s1 (stereo not given) |  | 2.66 µM (inactive) | 17.8 µM (inactive) | 1.83 µM (inactive) |  |
| CC(=O)OCC1OC(n2cc(F)c(=O)[nH]c2=O)C(N)C(OC(C)=O)C1OC(C)=O (stereo not given) |  | > 100 µM (inactive) | > 100 µM (inactive) | > 100 µM (inactive) |  |
| O=C1CSc2sc(=S)sc2S1 |  | 27.7 µM (inactive) | > 100 µM (inactive) | 31.2 µM (inactive) |  |
| Cc1[nH]c(=O)[nH]c(=O)c1/C=C/C(=O)NC(CO)C[S+]([O-])C[S+](C)[O-] (stereo not given) |  | 23.2 µM (inactive) | 9.38 µM (inactive) | 19.4 µM (inactive) |  |
| O=C1Nc2ccccc2Nc2ccncc21 |  | > 31.6 µM (inactive) | > 100 µM (inactive) | > 100 µM (inactive) |  |
| C/C=C1\NC(=O)[C@H]2CSSCCC=C[C@H](CC(=O)N[C@H](C(C)C)C(=O)N2)OC(=O)[C@H](C(C)C)NC1=O |  | < 0.0241 µM (active) | < 0.01 µM (active) | < 0.01 µM (active) |  |
